Assay results: ChEMBL document CHEMBL4350986, “Triptolide: Medicinal chemistry, chemical biology and clinical progress” (Eur J Med Chem, 2019)
In brackets after ≈: the same amount, converted by molar mass.

How the values were obtained:
[1] = Cytotoxicity against human Re-01 cells assessed as decrease in cell viability; type: functional, cell-based
[2] = Cytotoxicity against human Col-06 cells assessed as decrease in cell viability; type: functional, cell-based
[3] = Cytotoxicity against human SK-MEL-8 cells assessed as decrease in cell viability; type: functional, cell-based
[4] = Cytotoxicity against human OVCAR1 cells assessed as decrease in cell viability; type: functional, cell-based
[5] = Cytotoxicity against human Bre01 cells assessed as decrease in cell viability; type: functional, cell-based
[6] = system: HCT-116; experiment: Cytotoxicity against human HCT116 cells assessed as decrease in cell viability; type: functional, cell-based
[7] = system: P388; experiment: Cytotoxicity against mouse P388 cells assessed as decrease in cell viability after 72 hrs by MTT assay; type: functional, cell-based; settings: P388, 72 h
[8] = system: HL-60; experiment: Cytotoxicity against human HL60 cells assessed as decrease in cell viability by MTT assay; type: functional, cell-based
[9] = system: HeLa; experiment: Cytotoxicity against human HeLa cells assessed as decrease in cell viability by MTT assay; type: functional, cell-based
[10] = system: MKN-28; experiment: Cytotoxicity against human MKN28 cells assessed as decrease in cell viability after 72 hrs by MTT assay; type: functional, cell-based; settings: MKN-28, 72 h
[11] = system: MCF7; experiment: Cytotoxicity against human MCF7 cells assessed as decrease in cell viability after 72 hrs by MTT assay; type: functional, cell-based; settings: MCF7, 72 h
[12] = system: A549; experiment: Cytotoxicity against human A549 cells assessed as decrease in cell viability after 72 hrs by MTT assay; type: functional, cell-based; settings: A549, 72 h
[13] = system: KB; experiment: Cytotoxicity against human KB cells assessed as decrease in cell viability by MTT assay; type: functional, cell-based
[14] = system: BGC-823; experiment: Cytotoxicity against human BGC823 cells assessed as decrease in cell viability by MTT assay; type: functional, cell-based
[15] = system: MCF7; experiment: Cytotoxicity against human MCF7 cells assessed as decrease in cell viability by MTT assay; type: functional, cell-based
[16] = system: HL-60; experiment: Cytotoxicity against human HL60 cells assessed as decrease in cell viability after 72 hrs by MTT assay; type: functional, cell-based; settings: HL-60, 72 h
[17] = system: HL-60; experiment: Cytotoxicity against human HL60 cells assessed as decrease in cell viability; type: functional, cell-based
[18] = system: Jurkat; experiment: Cytotoxicity against human Jurkat cells assessed as decrease in cell viability; type: functional, cell-based
[19] = Half life of the compound; type: physicochemical
[20] = system: NIH3T3; experiment: Cytotoxicity against mouse NIH/3T3 cells assessed as decrease in cell viability; type: functional, cell-based
[21] = system: MDCK; experiment: Cytotoxicity against MDCK cells assessed as decrease in cell viability; type: functional, cell-based; settings: Canis lupus familiaris
[22] = system: HeLa; experiment: Cytotoxicity against human HeLa cells assessed as decrease in cell viability; type: functional, cell-based
[23] = Toxicity in rat ear inflammation model; settings: in vivo

CC(C)[C@]1(O)[C@H](N=C=S)[C@@H]2O[C@]23[C@]2(O[C@H]2C[C@H]2C4=C(CC[C@@]23C)C(=O)OC4)[C@@H]1O
IC50 [1]: 0.06 µg/mL (≈ 0.143 µM) | IC50 [2]: 0.03 µg/mL (≈ 0.0715 µM) | IC50 [3]: 0.09 µg/mL (≈ 0.215 µM) | IC50 [4]: 0.02 µg/mL (≈ 0.0477 µM) | IC50 [5]: 0.055 µg/mL (≈ 0.131 µM)

CC(C)[C@]12O[C@H]1[C@@H]1O[C@]13[C@]1(O[C@H]1C[C@H]1C4=C(CC[C@@]13C)C(=O)OC4)[C@@H]2NC=O
IC50 [6]: 354 nM

CC(C)[C@]12O[C@H]1[C@@H]1O[C@]13[C@]1(O[C@H]1C[C@@]1(O)C4=C(CC[C@]31C)C(=O)OC4)[C@@H]2O
IC50 [7]: 0.04 to 0.2 nM | IC50 [8]: 470 nM | IC50 [9]: 340 nM | IC50 [10]: 0.04 to 0.2 nM | IC50 [11]: 0.04 to 0.2 nM | IC50 [12]: 0.04 to 0.2 nM | IC50 [13]: 300 nM | IC50 [14]: 1500 nM | IC50 [15]: 1050 nM | IC50 [16]: 0.04 to 0.2 nM

C[C@]12CCC3=C(COC3=O)[C@@H]1C[C@@H]1O[C@@]13[C@H](O)[C@@]1(CCO)O[C@H]1[C@@H]1O[C@@]132
IC50 [6]: 74.7 nM

CC(C)[C@]12O[C@H]1[C@@H]1O[C@@]13[C@@]1(C)[C@H](O)CC4=C(COC4=O)[C@@H]1C[C@@H]1O[C@@]13[C@@H]2O
IC50 [8]: 70 nM | IC50 [9]: 320 nM | IC50 [13]: 120 nM | IC50 [14]: 7650 nM | IC50 [15]: 870 nM

C[C@]12CCC3=C(COC3=O)[C@@H]1C[C@@H]1O[C@@]13C(=O)[C@H]1O[C@H]1[C@@H]1O[C@]123
IC50 [6]: 537 nM

CC(C)C1=C[C@H]2O[C@]23[C@@]2(C)CCC4=C(COC4=O)[C@@H]2C[C@@H]2O[C@@]23C1=O
IC50 [17]: 16000 nM | IC50 [18]: 16000 nM

CCCNC(=O)OCCC[C@]12O[C@H]1[C@@H]1O[C@@]13[C@@]1(C)CCC4=C(COC4=O)[C@@H]1C[C@@H]1O[C@@]13C2=O
IC50 [6]: 8.4 nM

CC(C)[C@]12O[C@H]1[C@@H]1O[C@]13[C@]1(O[C@H]1C[C@H]1C4=C(CC[C@@]13C)C(=O)OC4)[C@@H]2N
IC50 [6]: 772 nM

CC(C)[C@]12O[C@H]1[C@@H]1O[C@]13[C@]1(O[C@H]1C[C@H]1C4=C(CC[C@@]13C)C(=O)OC4)[C@@H]2OCOP(=O)([O-])[O-].[Na+].[Na+] [MINNELIDE]
half-life [19]: 2 min

CC(C)C1=C[C@@H]2O[C@@]23[C@@]2(C)CCC4=C(COC4=O)[C@@H]2C[C@@H]2O[C@@]23C1=O
IC50 [17]: 16000 nM | IC50 [18]: 31000 nM

CC(C)[C@]12O[C@H]1[C@@H]1O[C@]13[C@]1(O[C@H]1C[C@H]1C4=C(CC[C@@]13C)C(=O)OC4)[C@@H]2O [TRIPTOLIDE]
IC50 [20]: 50 nM | IC50 [1]: 0.03 µg/mL (≈ 0.0832 µM) | IC50 [2]: 0.02 µg/mL (≈ 0.0555 µM) | IC50 [6]: 4.7 nM | IC50 [21]: 1200 nM | IC50 [3]: 0.02 µg/mL (≈ 0.0555 µM) | IC50 [4]: 0.006 µg/mL (≈ 0.0166 µM) | IC50 [18]: 140 nM | IC50 [22]: 87 nM | IC50 [5]: 0.04 µg/mL (≈ 0.111 µM)

C[C@@H]([C@@H]1CO1)[C@]12O[C@H]1[C@@H]1O[C@@]13[C@@]1(C)CCC4=C(COC4=O)[C@@H]1C[C@@H]1O[C@@]13C2=O
IC50 [20]: 40 nM

CC[C@@H](CO)[C@]12O[C@H]1[C@@H]1O[C@@]13[C@@]1(C)CCC4=C(COC4=O)[C@@H]1C[C@@H]1O[C@@]13C2=O
IC50 [20]: 10 nM | IC50 [21]: 270 nM | IC50 [18]: < 40 nM | IC50 [22]: 2 nM

C[C@]12CCC3=C(COC3=O)[C@@H]1C[C@@H]1O[C@@]13C(=O)[C@@]1(CCCC(=O)O)O[C@H]1[C@@H]1O[C@]123
IC50 [6]: 560 nM

CC(C)[C@]1(O)[C@H](O)[C@@H]2O[C@]23[C@]2(O[C@H]2C[C@H]2C4=C(CC[C@@]23C)C(=O)OC4)[C@@H]1O
LD50 [23]: > 500 mg/kg

C[C@]12CCC3=C(COC3=O)[C@@H]1C[C@@H]1O[C@@]13[C@@H](O)[C@@]1(CCO)O[C@H]1[C@@H]1O[C@@]132
IC50 [6]: 70.7 nM

CC(C)[C@]12O[C@H]1[C@@H]1O[C@]13[C@]1(O[C@H]1C[C@H]1C4=C(CC[C@@]13C)C(=O)O[C@H]4O)[C@@H]2O
IC50 [8]: 52600 nM | IC50 [13]: 46500 nM
